Experimental data as given in patent US20260345723A1, “Treatments for Opioid-Induced Respiratory Depression” (priority 2023, published 2026).

Tests used:
CXCR4 [1] = conditions: cited from earlier work
CCR2 [2] = conditions: selective CCR2 receptor antagonists, mice; cited from earlier work
CCR2 [3] = conditions: pretreatment with CCR2 antagonist; cited from earlier work
chemokine release = conditions: cited from earlier work
tolerance to morphine = conditions: in vivo; cited from earlier work
[4] = system: morphine-induced respiratory depression; conditions: rat, in vivo
IBA1 mRNA = conditions: rat, in vivo
CXCR4 [5] = conditions: rat, in vivo
CCR2 [6] = conditions: rat, in vivo
[7] = system: mu-opioid receptor (OPRM1); conditions: rat, in vivo
CCR5 [8] = conditions: rat, in vivo
GFAP mRNA = conditions: rat, in vivo
CXCR4 [9] = conditions: pretreatment, hypoxic neonatal rats; cited from earlier work
CCR5 [10] = conditions: CCR5 antagonist, rats; cited from earlier work
CCR5 [11] = conditions: cited from earlier work

In the case of `c1cc(CN2CCCNCCNCCCNCC2)ccc1CN1CCCNCCNCCCNCC1` [AMD3100], the CXCR4 antagonism (CXCR4 [1]) is listed as “antagonist of CXCR4” and the “mobilization of hematopoietic stem cells” value (CXCR4 [1]) is listed as “mobilize hematopoietic stem cells”.
For `COc1ccc(C2(O)CCC(N3CC[C@@H](NC(=O)CNC(=O)c4cccc(C(F)(F)F)c4)C3)CC2)cn1` (stereo partly shown) [INCB 3284], the methamphetamine-induced place conditioning (CCR2 [2]) is listed as “reduce”.
For `Cc1ccc2c(c1)C1(CCN(CCc3nc(-c4ccccc4)oc3C)CC1)OC(=O)N2` [RS504393], the methamphetamine-induced place conditioning (CCR2 [2]) is listed as “reduce”.
In the case of `O=C1Nc2ccccc2C2(CCN(CCc3ccc(C(F)(F)F)cc3)CC2)O1` [RS-102895], the “inflammation caused by CCL2” value (CCR2 [3]) is listed as “inhibited”.
For `CN(C)c1ccc(O)c2c1C[C@H]1C[C@H]3[C@H](N(C)C)C(O)=C(C(N)=O)C(=O)[C@@]3(O)C(O)=C1C2=O` [minocycline], the chemokine release (chemokine release) is given as “inhibits chemokine release” and the tolerance to morphine (tolerance to morphine) is given as “attenuates tolerance to morphine”.
For `CN1CC[C@]23c4c5ccc(O)c4O[C@H]2[C@@H](O)C=C[C@H]3[C@H]1C5` [morphine, reference compound], the “SpO2 (oxygen saturation)” value [4] was “under 90%”, the “cumulative SpO2” value [4] was “significantly reduced SpO2” and the cumulative respiratory rate [4] was “significantly increased respiratory rate”. The “microglial gene expression, VTA, NAC, PFC” value (IBA1 mRNA) was “not altered”, the “CXCR4 protein levels, VTA” value (CXCR4 [5]) was “significantly enhanced CXCR4 protein levels” and the “CCR2 protein levels, NAC” value (CCR2 [6]) was “significantly reduced CCR2 protein levels”. For the same compound, the “CCR2 protein levels, PFC” value (CCR2 [6]) was “significantly enhanced CCR2 protein levels”, the “CCR2 protein levels, VTA” value (CCR2 [6]) was “significantly enhanced CCR2 protein levels” and the “OPRM1 protein levels, VTA” value [7] was “significantly increased OPRM1 protein levels”. For the same compound, the “CCR5 protein levels, NAC” value (CCR5 [8]) was “significantly reduced CCR5 protein levels”, the “CCR5 protein levels, VTA” value (CCR5 [8]) was “did not significantly change” and the “GFAP mRNA levels, NAC” value (GFAP mRNA) was “significantly enhanced”. For the same compound, the “GFAP mRNA levels, VTA and PFC” value (GFAP mRNA) was “no significant changes were detected”.
For dexamethasone, the CXCR4 receptors (CXCR4 [9]) is given as “downregulates CXCR4 receptors” and the neuroprotection (CXCR4 [9]) is given as “induces neuroprotection”.
For maraviroc, the “locomotor-activating effects of cocaine” value (CCR5 [10]) is listed as “reduce”, the “rewarding efficacy of cocaine” value (CCR5 [10]) is listed as “reduce” and the “HIV entry into cells that express CCR5” value (CCR5 [11]) is listed as “inhibits the entry”.
